This is an account of results in PubChem BioAssay AID252 (DTP/NCI, 2004).

Values joined by “and” are separate entries in the source; they are usually repeats but may differ in a detail not shown here. Equal entries are not always repeated. Toxic doses and inconclusive results are not listed.

For this test, the system named is BDF1 mice, intracerebral L1210 leukemia, survival T/C. Briefly: NCI In Vivo Anticancer Drug Screen. Data for tumor model L1210 Leukemia (intracerebral) in B6D2F1 (BDF1) mice. The settings on record: higher = longer survival. The method in brief:
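Survival measured in treated and vehicle-control tumour-bearing mice; value = T/C.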

Where [1] appears, read: endpoint: mean survival time, dose: 1.0 mg/kg/injection, schedule: Q01DX009 (ip), vehicle: saline.
Setting [2] is: endpoint: mean survival time, dose: 2.0 mg/kg/injection, schedule: Q01DX009 (ip), vehicle: saline.
Setting [3] is: endpoint: mean survival time, dose: 2.0 mg/kg/injection, schedule: Q01DX Z (ip), vehicle: carboxymethylcellulose (CMC).

On to `N[C@@H](Cc1ccc(N(CCCl)CCCl)cc1)C(=O)O`, for which the T/C was 111 % of control under setting [1]; 98 % of control (endpoint: mean survival time, dose: 1.0 mg/kg/injection, schedule: Q01DX Z (ip), vehicle: carboxymethylcellulose (CMC)); 104 % of control and 97 % of control (endpoint: mean survival time, dose: 1.13 mg/kg/injection, schedule: Q01DX001 (ip), vehicle: carboxymethylcellulose (CMC)); 114 % of control under setting [2]; 111 % of control under setting [3]; 103 % of control and 104 % of control (endpoint: mean survival time, dose: 2.25 mg/kg/injection, schedule: Q01DX001 (ip), vehicle: carboxymethylcellulose (CMC)). Moreover, the T/C is 103 % of control and 108 % of control (endpoint: mean survival time, dose: 3.0 mg/kg/injection, schedule: Q01DX001 (ip), vehicle: carboxymethylcellulose (CMC)); 104 % of control and 110 % of control (endpoint: mean survival time, dose: 4.5 mg/kg/injection, schedule: Q01DX001 (ip), vehicle: carboxymethylcellulose (CMC)); 102 % of control (endpoint: mean survival time, dose: 8.0 mg/kg/injection, schedule: Q01DX Z (ip), vehicle: carboxymethylcellulose (CMC)); 119 % of control and 120 % of control (endpoint: mean survival time, dose: 9.0 mg/kg/injection, schedule: Q01DX001 (ip), vehicle: carboxymethylcellulose (CMC)); 111 % of control and 88 % of control (endpoint: mean survival time, dose: 12.5 mg/kg/injection, schedule: Q01DX Z (ip), vehicle: carboxymethylcellulose (CMC)); 155 % of control (endpoint: mean survival time, dose: 14.0 mg/kg/injection, schedule: Q01DX001 (ip), vehicle: carboxymethylcellulose (CMC)). Also, the T/C was 122 % of control (endpoint: mean survival time, dose: 18.0 mg/kg/injection, schedule: Q01DX001 (ip), vehicle: carboxymethylcellulose (CMC)); 88 % of control (endpoint: mean survival time, dose: 25.0 mg/kg/injection, schedule: Q01DX Z (ip), vehicle: carboxymethylcellulose (CMC)); 115 % of control (endpoint: mean survival time, dose: 29.0 mg/kg/injection, schedule: Q01DX001 (ip), vehicle: carboxymethylcellulose (CMC)).
Consider `CC[C@H]1CN2CCc3cc(OC)c(OC)cc3[C@@H]2C[C@@H]1C[C@H]1NCCc2cc(OC)c(OC)cc21`, for which the T/C is, setting by setting: (endpoint: mean survival time, dose: 1.0 mg/kg/injection, schedule: Q01DX005 (ip), vehicle: saline) 101 % of control; under setting [1], 100 % of control; (endpoint: mean survival time, dose: 2.0 mg/kg/injection, schedule: Q01DX005 (ip), vehicle: saline) 100 % of control; under setting [2], 98 % of control; (endpoint: mean survival time, dose: 2.0 mg/kg/injection, schedule: Q04DX003 (ip), vehicle: saline) 101 % of control; (endpoint: mean survival time, dose: 4.0 mg/kg/injection, schedule: Q01DX005 (ip), vehicle: saline) 98 % of control. For the same molecule, the T/C reads like this: (endpoint: mean survival time, dose: 4.0 mg/kg/injection, schedule: Q01DX009 (ip), vehicle: saline) 101 % of control; (endpoint: mean survival time, dose: 4.0 mg/kg/injection, schedule: Q04DX003 (ip), vehicle: saline) 101 % of control; (endpoint: mean survival time, dose: 4.0 mg/kg/injection, schedule: Q08DX002 (ip), vehicle: saline) 100 % of control; (endpoint: mean survival time, dose: 8.0 mg/kg/injection, schedule: Q01DX005 (ip), vehicle: saline) 98 % of control; (endpoint: mean survival time, dose: 8.0 mg/kg/injection, schedule: Q01DX009 (ip), vehicle: saline) 100 % of control; (endpoint: mean survival time, dose: 8.0 mg/kg/injection, schedule: Q04DX003 (ip), vehicle: saline) 96 % of control. For the same molecule, the T/C is, setting by setting: (endpoint: mean survival time, dose: 8.0 mg/kg/injection, schedule: Q08DX002 (ip), vehicle: saline) 97 % of control; (endpoint: mean survival time, dose: 16.0 mg/kg/injection, schedule: Q01DX005 (ip), vehicle: saline) 87 % of control; (endpoint: mean survival time, dose: 16.0 mg/kg/injection, schedule: Q04DX003 (ip), vehicle: saline) 104 % of control; (endpoint: mean survival time, dose: 16.0 mg/kg/injection, schedule: Q08DX002 (ip), vehicle: saline) 100 % of control; (endpoint: mean survival time, dose: 32.0 mg/kg/injection, schedule: Q04DX003 (ip), vehicle: saline) 106 % of control; (endpoint: mean survival time, dose: 32.0 mg/kg/injection, schedule: Q08DX002 (ip), vehicle: saline) 112 % of control.
Consider `O=c1[nH]cc(F)c(=O)[nH]1`, for which the T/C was 100 % of control (endpoint: mean survival time, dose: 12.76 mg/kg/injection, schedule: Q01DX015 (ip), vehicle: carboxymethylcellulose (CMC)); 111 % of control (endpoint: mean survival time, dose: 19.43 mg/kg/injection, schedule: Q01DX015 (ip), vehicle: carboxymethylcellulose (CMC)); 113 % of control (endpoint: mean survival time, dose: 29.0 mg/kg/injection, schedule: Q01DX015 (ip), vehicle: carboxymethylcellulose (CMC)); 112 % of control (endpoint: mean survival time, dose: 79.5 mg/kg/injection, schedule: Q01DX001 (ip), vehicle: carboxymethylcellulose (CMC)); 105 % of control (endpoint: median survival time, dose: 8.4 mg/kg/injection, schedule: Q01DX009 (ip), vehicle: saline); 108 % of control (endpoint: median survival time, dose: 14.0 mg/kg/injection, schedule: Q01DX009 (ip), vehicle: saline). The T/C is, setting by setting: (endpoint: median survival time, dose: 23.0 mg/kg/injection, schedule: Q04DX003 (ip), vehicle: saline) 108 % of control; (endpoint: median survival time, dose: 39.0 mg/kg/injection, schedule: Q01DX009 (ip), vehicle: saline) 107 % of control; (endpoint: median survival time, dose: 39.0 mg/kg/injection, schedule: Q04DX003 (ip), vehicle: saline) 118 % of control; (endpoint: median survival time, dose: 65.0 mg/kg/injection, schedule: Q01DX009 (ip), vehicle: saline) 96 % of control; (endpoint: median survival time, dose: 108.0 mg/kg/injection, schedule: Q04DX003 (ip), vehicle: saline) 156 % of control; (endpoint: median survival time, dose: 180.0 mg/kg/injection, schedule: Q04DX003 (ip), vehicle: saline) 99 % of control.
As to `COC12C(COC(N)=O)C3=C(C(=O)C(C)=C(N)C3=O)N1CC1C2N1C` (configuration not stated), the T/C reads like this: (endpoint: mean survival time, dose: 11.0 mg/kg/injection, schedule: Q01DX001 (ip), vehicle: carboxymethylcellulose (CMC)) 92 % of control; (endpoint: mean survival time, dose: 17.0 mg/kg/injection, schedule: Q01DX001 (ip), vehicle: carboxymethylcellulose (CMC)) 98 % of control; (endpoint: mean survival time, dose: 26.0 mg/kg/injection, schedule: Q01DX001 (ip), vehicle: carboxymethylcellulose (CMC)) 97 % of control.
Consider `COc1cc(NS(C)(=O)=O)ccc1Nc1c2ccccc2nc2c(C)cccc12`, for which the T/C (endpoint: mean survival time, dose: 2.5 mg/kg/injection, schedule: Q01DX009 (ip), vehicle: water) was 116 % of control and 113 % of control; the T/C (endpoint: mean survival time, dose: 2.5 mg/kg/injection, schedule: Q01DX009 (sc), vehicle: water) was 112 % of control and 111 % of control; the T/C (endpoint: mean survival time, dose: 5.0 mg/kg/injection, schedule: Q01DX009 (ip), vehicle: water) was 112 % of control; the T/C (endpoint: mean survival time, dose: 5.0 mg/kg/injection, schedule: Q01DX009 (sc), vehicle: water) is 105 % of control and 104 % of control; the T/C (endpoint: mean survival time, dose: 10.0 mg/kg/injection, schedule: Q01DX009 (sc), vehicle: water) was 103 % of control.
Turning to `CC(=O)NC1=C(N2CC2)C(=O)C(NC(C)=O)=C(N2CC2)C1=O`, the T/C is 105 % of control (endpoint: mean survival time, dose: 0.12 mg/kg/injection, schedule: Q01DX009 (ip), vehicle: saline with Tween-80); 97 % of control (endpoint: mean survival time, dose: 0.25 mg/kg/injection, schedule: Q01DX005 (ip), vehicle: saline with Tween-80); 105 % of control (endpoint: mean survival time, dose: 0.25 mg/kg/injection, schedule: Q01DX009 (ip), vehicle: saline with Tween-80); 110 % of control and 117 % of control (endpoint: mean survival time, dose: 0.25 mg/kg/injection, schedule: Q01DX009 (ip), vehicle: saline); 105 % of control (endpoint: mean survival time, dose: 0.5 mg/kg/injection, schedule: Q01DX005 (ip), vehicle: saline with Tween-80); 108 % of control (endpoint: mean survival time, dose: 0.5 mg/kg/injection, schedule: Q01DX009 (ip), vehicle: saline with Tween-80). For the same molecule, the T/C (endpoint: mean survival time, dose: 0.5 mg/kg/injection, schedule: Q01DX Z (ip), vehicle: carboxymethylcellulose (CMC)) was 113 % of control; the T/C (endpoint: mean survival time, dose: 1.0 mg/kg/injection, schedule: Q01DX005 (ip), vehicle: saline with Tween-80) is 111 % of control; the T/C (endpoint: mean survival time, dose: 2.0 mg/kg/injection, schedule: Q01DX005 (ip), vehicle: saline with Tween-80) was 115 % of control; the T/C under setting [2] is 96 % of control and 98 % of control; the T/C under setting [3] was 119 % of control.
In the case of `CCN(N=O)C(N)=O`, the T/C (endpoint: mean survival time, dose: 67.0 mg/kg/injection, schedule: Q01DX001 (ip), vehicle: carboxymethylcellulose (CMC)) is 97 % of control; the T/C (endpoint: mean survival time, dose: 100.0 mg/kg/injection, schedule: Q01DX001 (ip), vehicle: carboxymethylcellulose (CMC)) is 105 % of control; the T/C (endpoint: mean survival time, dose: 150.0 mg/kg/injection, schedule: Q01DX001 (ip), vehicle: carboxymethylcellulose (CMC)) was 104 % of control.
